# Measured values taken from patent US6921821B2, “Antagonists of melanin concentrating hormone receptor” (Abbott Laboratories, priority 2002, dated 2005).
# Counter-ions that a name gives are not always drawn.
# Target: T1, murine MCHR (Mus musculus, UniProt Q8JZL2)
# T1 construct: expressed in transfected cells; host or cells: HEK293
# Experiment: Assay for release of intracellular calcium (FLIPR, Fluo-4), inhibition of MCH-induced Ca++ flux
# Format: cell-based
# Conditions: test compound at a dose of 10 μM, HEK293 cells expressing the murine MCHR, read-out: inhibition of MCH (MCH induced Ca++ flux / fluorescence)
# Description: Assay for Release of Intracellular Calcium
# Activation of the melanin concentrating hormone receptor (MCHR) by MCH induces the release of Ca^++ from intracellular stores. This intracellular calcium release is measured using a fluorometric imaging plate reader (FLIPR™, Molecular Devices Corp.) in conjunction with the Ca^++-sensitive dye Fluo-4. Release of Ca^++ from intracellular stores causes an increase in fluorescence of the dye that is proportional to Ca^++ concentration. Briefly, the assays are performed as follows. HEK293 cells expressing the murine MCHR are plated overnight at 50,000 cells/well in 96-well plates. The following day, culture medium is removed and replaced with 100 μl/well of D-PBS (+glucose and sodium pyruvate) containing 2.5 μM Fluo-4AM (Molecular Probes), 0.01% Pluronic F-127 and 2.5 mM probenecid. Cells are loaded with the Fluo-4 dye for at least one hour at room temp. After loading, the cells are washed gently to remove extracellular dye and 100 μl of D-PBS (+glucose and sodium pyruvate) is added to each well. Test compounds are prepared at 40 μM in 4% DMSO. The cell plate is placed in the FLIPR™ and 50 μl/well of test compound is delivered. The calcium signal is followed for 3 minutes to assay for potential agonist activity by the test compounds. Then 50 μl/well of 12 nM mouse MCH (in D-PBS containing 0.1% BSA) is added and the ligand-induced calcium signal is followed for an additional 3 minutes. Antagonist activity as determined by the test compounds ability to inhibit MCH induced Ca^++ flux is calculated as % inhibition as described by the following formula: % inhibition=[1−((fTC−fB)÷(fMCH−fB))]×100, where fTC=MCH-induced fluorescence in the presence of test compound; fMCH=MCH-induced fluorescence in the absence of test compound; and fB=Baseline fluorescence.
# MCH (3 nM) usually elicits a response of 30,000-40,000 relative fluorescence units (RFU) with a baseline of about 1000 RFU. Fluo-4 fluorescence is measured at 488 nm, with an exposure of 0.40 sec. and F-stop=2.0 and the laser set at 0.40-0.60 W constant light output.
# T1 sequence (Q8JZL2 whole entry): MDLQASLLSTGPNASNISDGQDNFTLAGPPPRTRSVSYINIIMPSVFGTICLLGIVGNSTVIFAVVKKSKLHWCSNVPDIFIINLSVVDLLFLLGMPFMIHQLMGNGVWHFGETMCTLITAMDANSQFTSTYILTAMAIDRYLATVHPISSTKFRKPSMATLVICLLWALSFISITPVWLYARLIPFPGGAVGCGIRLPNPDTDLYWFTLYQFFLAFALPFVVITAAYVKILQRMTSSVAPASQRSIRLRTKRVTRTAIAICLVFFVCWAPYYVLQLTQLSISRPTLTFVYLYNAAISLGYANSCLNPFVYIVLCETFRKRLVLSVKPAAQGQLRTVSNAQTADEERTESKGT
row,inhibition at 10 µM,Structure (SMILES)
1,≥ 50%,"N#Cc1ccc2oc(=O)cc(NC3CCN(C/C=C/c4ccccc4)CC3)c2c1 [III-59, 2-Oxo-4-[1-(3-phenyl-allyl)-piperidin-4-ylamino]-2H-chromene-6-carbonitrile]"
2,≥ 50%,"Cc1ccc2oc(=O)cc(NC3CCN(Cc4ccc5c(c4)OCO5)CC3)c2c1 [II-3, 4-(1-Benzo[1,3]dioxol-5-ylmethyl-piperidin-4-ylamino)-6-methyl-chromen-2-one]"
3,≥ 50%,"CC(=O)Nc1c(NC2CCN(Cc3ccc4c(c3)OCO4)CC2)c2cc(Cl)ccc2oc1=O [II-42, N-[4-(1-Benzo[1,3]dioxol-5-ylmethyl-piperidin-4-ylamino)-6-chloro-2-oxo-2H-chromen-3-yl]-acetamide]"
4,≥ 50%,"COc1ccc([C@@H](C)N2CCC(Nc3cc(=O)oc4ccc(Cl)cc34)CC2)cc1F (stereo in doubt) [II-45, 6-Chloro-4-{1-[1-(3-fluoro-4-methoxy-phenyl)-ethyl]-piperidin-4-ylamino}-chromen-2-one]"
5,≥ 50%,"O=c1cc(NC2CCN(Cc3ccc4c(c3)OCO4)CC2)c2cc(C(F)(F)F)ccc2n1CC(F)(F)F [Compound V-58, 4-(1-Benzo[1,3]dioxol-5-ylmethyl-piperidin-4-ylamino)-1-(2,2,2-trifluoro-ethyl)-6-trifluoromethyl-1H-quinoline-2-one]"
6,≥ 50%,"CCn1c(=O)cc(NC2CCN(Cc3ccc4ccccc4c3)CC2)c2cc(Cl)ccc21 [Compound V-6, 6-Chloro-1-ethyl-4-(1-naphthalen-2-ylmethyl-piperidin-4-ylamino)-1H-quinolin-2-one]"
7,≥ 50%,"COc1ccc2c(c1)c(NC1CCN(Cc3ccc4ccccc4c3)CC1)cc(=O)n2C [Compound V-9, 6-Methoxy-1-methyl-4-(1-naphthalen-2-ylmethyl-piperidin-4-ylamino)-1H-quinolin-2-one]"
8,≥ 50%,"CC(c1ccc(O)c(F)c1)N1CCC(Nc2cc(=O)oc3ccc(Cl)cc23)CC1 (stereo not drawn) [II-113, 6-Chloro-4-{1-[1-(3-fluoro-4-hydroxy-phenyl)-ethyl]-piperidin-4-ylamino}-chromen-2-one]"
9,≥ 50%,"COc1ccc2oc(=O)c(Cl)c(NC3CCN(Cc4ccc5c(c4)OCO5)CC3)c2c1 [II-90, 4-(1-Benzo[1,3]dioxol-5-ylmethyl-piperidin-4-ylamino)-3-chloro-6-methoxy-chromen-2-one]"
10,≥ 50%,"Cc1ccc2oc(=O)c(F)c(NC3CCN(Cc4ccc5c(c4)OCO5)CC3)c2c1 [II-89, 4-(1-Benzo{1,3}dioxol-5-ylmethyl-piperidin-4-ylamino)-3-fluoro-6-methylchromene-2-one]"
11,≥ 50%,"COc1ccc2oc(=O)cc(NC3CCN(Cc4ccc(O)c(F)c4)CC3)c2c1 [II-88, 4-[1-(3-Fluoro-4-hydroxy-benzyl)-piperidin-4-ylamino]-6-methoxy-chromen-2-one hydrochloride]"
12,≥ 50%,"O=c1cc(NC2CCN(Cc3ccc4c(c3)OCO4)CC2)c2cc(Cl)ccc2n1Cc1ccccn1 [Compound V-2, 4-(1-Benzo[1,3]dioxol-5-ylmethyl-piperidin-4-ylamino)-6-chloro-1-pyridin-2-ylmethyl-1H-quinolin-2-one]"
13,≥ 50%,"Cn1c(=O)cc(NC2CCN(C/C=C/c3ccccc3)CC2)c2ccccc21 [Compound V-47, 1-Methyl-4-[1-(3-phenyl-allyl)-piperidin-4-ylamino]-1H-quinolin-2-one]"
14,≥ 50%,"Cn1c(=O)c(C2=NC(C)(C)CO2)c(NC2CCN(Cc3ccc4c(c3)OCO4)CC2)c2cc(Cl)ccc21 [Compound V-49, 4-(1-Benzo[1,3]dioxol-5-ylmethyl-piperidin-4-ylamino)-6-chloro-3-(4,4-dimethyl-4,5-dihydro-oxazol-2-yl)-1-methyl-1H-quinolin-2-one]"
15,≥ 50%,"COc1ccc2oc(=O)cc(NC3CCN(Cc4ccc5c(ccn5C)c4)CC3)c2c1 [II-111, 6-Methoxy-4-[N-methylindole-5-ylmethyl-piperidin-4-ylamino]chromen-2-one]"
16,≥ 50%,"O=c1cc(NC2CCN(Cc3ccncc3)CC2)c2cc(Cl)ccc2n1Cc1ccncc1 [Compound V-35, 6-Chloro-1-pyridin-4-ylmethyl-4-(1-pyridin-4-ylmethyl-piperidin-4-ylamino)-1H-quinolin-2-one]"

row,inhibition at 10 µM,Structure (SMILES)
1,≥ 50%,"O=c1cc(NC2CCN(Cc3cc(Cl)c4occc4c3)CC2)c2cc(Cl)ccc2o1 [II-93, 6-Chloro-4-[1-(7-chloro-benzofuran-5-ylmethyl)-piperidin-4-ylamino]-chromen-2-one]"
2,≥ 50%,"O=c1cc(NC2CCN(Cc3ccc4cnccc4c3)CC2)c2cc(Cl)ccc2o1 [II-73, 6-Chloro-4-(1-isoquinolin-6-ylmethyl-piperidin-4-ylamino)-chromen-2-one]"
3,≥ 50%,"O=c1cc(NC2CCN(Cc3ccc4c(c3)OCCCO4)CC2)c2cc(Cl)ccc2o1 [II-51, 6-Chloro-4-[1-(3,4-dihydro-2H-benzo[b][1,4]dioxepin-7-ylmethyl)-piperidin-4-ylamino]-chromen-2-one]"
4,≥ 50%,"COc1ccc2oc(=O)cc(NC3CCN(Cc4ccc(OC)c(C)c4)CC3)c2c1 [II-37, 6-Methoxy-4-[1-(4-methoxy-3-methyl-benzyl)-piperidin-4-ylamino]-chromen-2-one trifluoroacetate]"
5,≥ 50%,"O=c1cc(NC2CCN(Cc3ccc4c(c3)OCO4)CC2)c2cc(C(F)(F)F)ccc2o1 [II-82, 4-(1-Benzo[1,3]dioxol-5-ylmethyl-piperidin-4-ylamino)-6-trifluoromethyl-chromen-2-one]"
6,≥ 50%,"O=c1cc(NC2CCN(C/C=C/c3ccccc3)CC2)c2cc(Br)ccc2o1 [III-5, 6-Bromo-4-[1-(3-phenyl-allyl)-piperidine-4-ylamino]-chromen-2-one]"
7,≥ 50%,"COc1ccc2c(c1)c(NC1CCN(C/C=C/c3ccccc3)CC1)cc(=O)n2C [Compound V-14, 6-Methoxy-1-methyl-4-[1-(3-phenyl-allyl)-piperidin-4-ylamino]-1H-quinolin-2-one]"
8,≥ 50%,"Cc1ccc2oc(=O)cc(NC3CCN(C/C=C/c4ccccc4[N+](=O)[O-])CC3)c2c1 [III-12, 6-Methyl-4-{1-[3-(2-nitro-phenyl)-allyl]-piperidin-4-ylamino}-chromen-2-one]"
9,≥ 50%,"O=c1cc(NC2CCN(C/C=C/c3ccccc3Cl)CC2)c2cc(Cl)ccc2o1 [III-2, 6-Chloro-4-{1-[3-(2-chloro-phenyl)-allyl]-piperidin-4-ylamino}-chromen-2-one]"
10,≥ 50%,"CCn1c(=O)cc(NC2CCN(C/C=C/c3ccccc3)CC2)c2cc(Cl)ccc21 [Compound V-63, 6-Chloro-1-ethyl-4-[1-(3-phenyl-allyl)-piperidin-4-ylamino]-1H-quinolin-2-one]"
11,≥ 50%,"COc1ccc2oc(=O)cc(NC3CCN(Cc4ccc(C(=O)NCCN5CCCC5)cc4)CC3)c2c1 [II-86, 4-[4-(6-Methoxy-2-oxo-2H-chromen-4-ylamino)-piperidin-1-ylmethyl]-N-(2-pyrrolidin-1-yl-ethyl)-benzamide; Double TFA Salt]"
12,≥ 50%,"COc1ccc2oc(=O)cc(NC3CCN(Cc4ccc5ccc(C)cc5c4)CC3)c2c1 [II-27, 6-Methoxy-4-[1-(7-methyl-naphthalen-2-ylmethyl)-piperidin-4-ylamino]-chromen-2-one trifluoroacetate]"
13,≥ 50%,"CN(C)C(=O)c1c(NC2CCN(Cc3ccc4ccccc4c3)CC2)c2cc(Cl)ccc2n(C)c1=O [Compound V-24, 6-Chloro-1-methyl-4-(1-naphthalen-2-ylmethyl-piperidin-4-ylamino)-2-oxo-1,2-dihydro-quinoline-3-carboxylic acid dimethylamide]"
14,≥ 50%,"O=c1cc(NC2CCN(C/C=C/c3cccc(Cl)c3)CC2)c2ccccc2o1 [III-9, 4-{1-[3-(3-Chloro-phenyl)-allyl]-piperidin-4-ylamino}-chromen-2-one]"
15,≥ 50%,"O=c1cc(NC2CCN(C/C=C/c3ccccc3)CC2)c2ccccc2o1 [III-24, 4-[1-(3-Phenyl-allyl)-piperidin-4-ylamino]-chromen-2-one]"

row,Structure (SMILES),inhibition at 10 µM
1,"CCCCOc1ccc(CN2CCC(Nc3cc(=O)oc4ccc(OC)cc34)CC2)cc1 [II-50, 4-[1-(4-Butoxy-benzyl)-piperidin-4-ylamino]-6methoxy-chromen-2-one trifluoroacetate]",≥ 50%
2,O=c1cc(NC2CC3CCC(C2)N3Cc2ccc3c(c2)OCO3)c2cc(Cl)ccc2n1CC(F)(F)F (stereo not drawn) [Compound V-57],≥ 50%
